Test system: CPA-CLP sepsis mouse model
Assay: Effects of LPC concentrations on mortalities/survivabilities in CPA-CLP sepsis mouse model (SEP008); s.c. 4 times 12-hr intervals from 6 hrs after CLP
Assay type: in vivo, ICR mice
Protocol: CPA is well known as an immunosuppressive agent. […] Then, the abdomen was closed following the general procedure.
Then, body weight and mortality changes were observed.
In the Sham and CLP control groups, 10 ml/kg of only 5% human serum albumin was subcutaneously dosed at the same intervals.

Lysophosphatidylcholine [LPC]
minimal effective dose (CPA-CLP model): about 1 mg/kg
optimal effective dose (CPA-CLP model): 10 mg/kg
Mortalities (LPC 1 mpk, 1st CPA treat): 0/10
survivabilities (LPC 1 mpk, 1st CPA treat): 100%
Mortalities (LPC 1 mpk, 2nd CPA treat): 0/10
survivabilities (LPC 1 mpk, 2nd CPA treat): 100%
Mortalities (LPC 1 mpk, At CLP (day 0)): 0/10
survivabilities (LPC 1 mpk, At CLP (day 0)): 100%
Mortalities (LPC 1 mpk, Day 1): 4/10
survivabilities (LPC 1 mpk, Day 1): 60%
Mortalities (LPC 1 mpk, Day 2): 2/6
survivabilities (LPC 1 mpk, Day 2): 40%
Mortalities (LPC 1 mpk, Day 3): 2/4
survivabilities (LPC 1 mpk, Day 3): 20%
Mortalities (LPC 1 mpk, Day 4): 2/2
survivabilities (LPC 1 mpk, Day 4): 0%
Mortalities (LPC 1 mpk, Day 5): 0/0
survivabilities (LPC 1 mpk, Day 5): 0%
Mortalities (LPC 1 mpk, Day 6): 0/0
survivabilities (LPC 1 mpk, Day 6): 0%
Mortalities (LPC 1 mpk, Day 7): 0/0
survivabilities (LPC 1 mpk, Day 7): 0%
Mortalities (LPC 1 mpk, Total): 10/10
survivabilities (LPC 1 mpk, Total): 0%
Mortalities (LPC 2.5 mpk, 1st CPA treat): 0/10
survivabilities (LPC 2.5 mpk, 1st CPA treat): 100%
Mortalities (LPC 2.5 mpk, 2nd CPA treat): 0/10
survivabilities (LPC 2.5 mpk, 2nd CPA treat): 100%
Mortalities (LPC 2.5 mpk, At CLP (day 0)): 0/10
survivabilities (LPC 2.5 mpk, At CLP (day 0)): 100%
Mortalities (LPC 2.5 mpk, Day 1): 2/10
survivabilities (LPC 2.5 mpk, Day 1): 80%
Mortalities (LPC 2.5 mpk, Day 2): 2/8
survivabilities (LPC 2.5 mpk, Day 2): 60%
Mortalities (LPC 2.5 mpk, Day 3): 3/6
survivabilities (LPC 2.5 mpk, Day 3): 30%
Mortalities (LPC 2.5 mpk, Day 4): 2/3
survivabilities (LPC 2.5 mpk, Day 4): 10%
Mortalities (LPC 2.5 mpk, Day 5): 1/1
survivabilities (LPC 2.5 mpk, Day 5): 0%
Mortalities (LPC 2.5 mpk, Day 6): 0/0
survivabilities (LPC 2.5 mpk, Day 6): 0%
Mortalities (LPC 2.5 mpk, Day 7): 0/0
survivabilities (LPC 2.5 mpk, Day 7): 0%
Mortalities (LPC 2.5 mpk, Total): 10/10
survivabilities (LPC 2.5 mpk, Total): 0%
Mortalities (LPC 5 mpk, 1st CPA treat): 0/10
survivabilities (LPC 5 mpk, 1st CPA treat): 100%
Mortalities (LPC 5 mpk, 2nd CPA treat): 0/10
survivabilities (LPC 5 mpk, 2nd CPA treat): 100%
Mortalities (LPC 5 mpk, At CLP (day 0)): 0/10
survivabilities (LPC 5 mpk, At CLP (day 0)): 100%
Mortalities (LPC 5 mpk, Day 1): 4/10
survivabilities (LPC 5 mpk, Day 1): 60%
Mortalities (LPC 5 mpk, Day 2): 1/6
survivabilities (LPC 5 mpk, Day 2): 50%
Mortalities (LPC 5 mpk, Day 3): 1/5
survivabilities (LPC 5 mpk, Day 3): 40%
Mortalities (LPC 5 mpk, Day 4): 1/4
survivabilities (LPC 5 mpk, Day 4): 30%
Mortalities (LPC 5 mpk, Day 5): 0/3
survivabilities (LPC 5 mpk, Day 5): 30%
Mortalities (LPC 5 mpk, Day 6): 2/3
survivabilities (LPC 5 mpk, Day 6): 10%
Mortalities (LPC 5 mpk, Day 7): 1/1
survivabilities (LPC 5 mpk, Day 7): 0%
Mortalities (LPC 5 mpk, Total): 10/10
survivabilities (LPC 5 mpk, Total): 0%
Mortalities (LPC 10 mpk, 1st CPA treat): 0/10
survivabilities (LPC 10 mpk, 1st CPA treat): 100%
Mortalities (LPC 10 mpk, 2nd CPA treat): 0/10
survivabilities (LPC 10 mpk, 2nd CPA treat): 100%
Mortalities (LPC 10 mpk, At CLP (day 0)): 0/10
survivabilities (LPC 10 mpk, At CLP (day 0)): 100%
Mortalities (LPC 10 mpk, Day 1): 1/10
survivabilities (LPC 10 mpk, Day 1): 90%
Mortalities (LPC 10 mpk, Day 2): 2/9
survivabilities (LPC 10 mpk, Day 2): 70%
Mortalities (LPC 10 mpk, Day 3): 1/7
survivabilities (LPC 10 mpk, Day 3): 60%
Mortalities (LPC 10 mpk, Day 4): 1/6
survivabilities (LPC 10 mpk, Day 4): 50%
Mortalities (LPC 10 mpk, Day 5): 1/5
survivabilities (LPC 10 mpk, Day 5): 40%
Mortalities (LPC 10 mpk, Day 6): 2/4
survivabilities (LPC 10 mpk, Day 6): 20%
Mortalities (LPC 10 mpk, Day 7): 2/2
survivabilities (LPC 10 mpk, Day 7): 0%
Mortalities (LPC 10 mpk, Total): 10/10
survivabilities (LPC 10 mpk, Total): 0%
Mortalities (LPC 20 mpk, 1st CPA treat): 0/10
survivabilities (LPC 20 mpk, 1st CPA treat): 100%
Mortalities (LPC 20 mpk, 2nd CPA treat): 0/10
survivabilities (LPC 20 mpk, 2nd CPA treat): 100%
Mortalities (LPC 20 mpk, At CLP (day 0)): 0/10
survivabilities (LPC 20 mpk, At CLP (day 0)): 100%
Mortalities (LPC 20 mpk, Day 1): 1/10
survivabilities (LPC 20 mpk, Day 1): 90%
Mortalities (LPC 20 mpk, Day 2): 1/9
survivabilities (LPC 20 mpk, Day 2): 80%
Mortalities (LPC 20 mpk, Day 3): 2/8
survivabilities (LPC 20 mpk, Day 3): 60%
Mortalities (LPC 20 mpk, Day 4): 2/6
survivabilities (LPC 20 mpk, Day 4): 40%
Mortalities (LPC 20 mpk, Day 5): 2/4
survivabilities (LPC 20 mpk, Day 5): 20%
Mortalities (LPC 20 mpk, Day 6): 0/2
survivabilities (LPC 20 mpk, Day 6): 20%
Mortalities (LPC 20 mpk, Day 7): 2/2
survivabilities (LPC 20 mpk, Day 7): 0%
Mortalities (LPC 20 mpk, Total): 10/10
survivabilities (LPC 20 mpk, Total): 0%
survival time (all the five doses of LPC in CPA-CLP mice): significantly increased

From patent US9446061B2, “Composition containing antibiotics and lysophosphatidylcholine for boosting immunity or treatment of bacterial infections” (priority 2011, dated 2016)
